{
  "source": "patent US10441681B2",
  "about": "“Materials and methods for nerve grafting” (University of Florida Research Foundation, Inc., priority 2001, dated 2019)",
  "system": "embryonic chick DRG neurons",
  "assay": "Cryoculture bioassay (neurite outgrowth) on sections of acellular rat nerve segments",
  "assay_type": "cell-based",
  "procedure": "Cryoculture is a neurite outgrowth assay in which neurons are cultured directly on fresh/frozen nerve sections and was performed as described previously (Ferguson T A et al. [2000] Mol Cell Neurosci, 16:157-167). Briefly, chondroitinase- and vehicle-treated nerve segments were sectioned at 20 μm, mounted on sterile, aminopropyltriethoxysilane (APTS)-coated coverslips and stored at −20° C. until used. Where indicated, sections were treated with chondroitinase ABC (0.1 unit/ml) or vehicle (50 mM Tris-HCl, pH 8.0), containing 50 mM NaCl) for 2 h at 37° C. Purified dorsal root ganglionic (DRG) neurons from day 8 chick embryos were seeded directly on the nerve sections in a defined N2 medium (Bottenstein J E et al. [1980] Exp Cell Res 125:183-190) containing 10 ng/ml nerve growth factor. Cryoculture assays were terminated after 24 h of incubation by fixation with 100% methanol. Neuritic growth by DRG neurons was accessed by GAP-43 immunofluorescent labeling. Epifluorescent photomicrographs were acquired as described for tissue sections. Neurite lengths were measured directly using IMAGE-PRO PLUS software (MEDIA CYBERNETICS, Silver Springs, Md.). At least 250 neurons with neurites greater than one cell body (˜15 μm) were scored for each condition in each experiment.\nInactivation of inhibitory CSPG in chondroitinase-treated acellular nerve was determined by cryoculture bioassay. Embryonic chick DRG neurons were seeded onto sections of prepared nerve segments and the neurite-promoting activity was assessed by scoring neurite growth. On sections of acellular nerve pretreated en bloc with vehicle only the average neurite length was 49 μm. Neurite growth on acellular nerve pretreated en bloc with chondroitinase averaged 96 μm, representing a 95% increase compared to the control condition. To determine if the en bloc chondroitinase treatment was thorough, cryoculture assays were performed on nerve tissues treated with chondroitinase after sectioning (post-treatment).",
  "data": [
    {"substance": "chondroitinase ABC", "values": [
      {"measurement": "increase in neurite growth compared to the control condition", "setting": "acellular nerve pretreated en bloc vs en bloc vehicle", "value": 95, "unit": "%"},
      {"measurement": "average neurite length", "setting": "acellular nerve pretreated en bloc, DRG neurons grown 24 h", "value": 96, "unit": "μm"},
      {"measurement": "increase in neurite-promoting activity by post-treatment of sections", "setting": "acellular nerve treated en bloc with vehicle only, sections post-treated with chondroitinase", "value": 86, "unit": "%"},
      {"measurement": "effect of post-treatment on sections from en bloc chondroitinase-treated nerve grafts", "setting": "post-treatment after sectioning", "value": "only a slight additive effect"}
    ]}
  ]
}
